# Measurements published in the supplement of paper PMC13380429.
# How the values were obtained:
# Details in all cases: 72 h
# Caco-2 [1] = assay: cell viability relative to DMSO; higher = less toxic
# Calu-3 [2] = assay: as above
# HepG2 [3] = assay: as above
# U2OS [4] = assay: as above
# Vero E6 [5] = assay: as above
# Caco-2 [6] = assay: relative viability EC50 (midpoint between 100% and the lowest measured viability); higher = less toxic
# Calu-3 [7] = assay: as above
# HepG2 [8] = assay: as above
# U2OS [9] = assay: as above
# Vero E6 [10] = assay: as above
# Caco-2 [11] = assay: drug sensitivity score (DSS) for viability; higher = more toxic; extreme values may be limits of the assay
# Calu-3 [12] = assay: as above
# HepG2 [13] = assay: as above
# U2OS [14] = assay: as above
# Vero E6 [15] = assay: as above
Compound,cell viability (Caco-2 [1]; 1 nM) [%],cell viability (Caco-2 [1]; 10 nM) [%],cell viability (Caco-2 [1]; 100 nM) [%],cell viability (Caco-2 [1]; 1000 nM) [%],cell viability (Caco-2 [1]; 10000 nM) [%],cell viability (Calu-3 [2]; 1 nM) [%],cell viability (Calu-3 [2]; 10 nM) [%],cell viability (Calu-3 [2]; 100 nM) [%],cell viability (Calu-3 [2]; 1000 nM) [%],cell viability (Calu-3 [2]; 10000 nM) [%],cell viability (HepG2 [3]; 1 nM) [%],cell viability (HepG2 [3]; 10 nM) [%],cell viability (HepG2 [3]; 100 nM) [%],cell viability (HepG2 [3]; 1000 nM) [%],cell viability (HepG2 [3]; 10000 nM) [%],cell viability (U2OS [4]; 1 nM) [%],cell viability (U2OS [4]; 10 nM) [%],cell viability (U2OS [4]; 100 nM) [%],cell viability (U2OS [4]; 1000 nM) [%],cell viability (U2OS [4]; 10000 nM) [%],cell viability (Vero E6 [5]; 1 nM) [%],cell viability (Vero E6 [5]; 10 nM) [%],cell viability (Vero E6 [5]; 100 nM) [%],cell viability (Vero E6 [5]; 1000 nM) [%],cell viability (Vero E6 [5]; 10000 nM) [%],relative viability EC50 (Caco-2 [6]) [µM],relative viability EC50 (Calu-3 [7]) [µM],relative viability EC50 (HepG2 [8]) [µM],relative viability EC50 (U2OS [9]) [µM],relative viability EC50 (Vero E6 [10]) [µM],drug sensitivity score (Caco-2 [11]),drug sensitivity score (Calu-3 [12]),drug sensitivity score (HepG2 [13]),drug sensitivity score (U2OS [14]),drug sensitivity score (Vero E6 [15])
Cc1cc(C(=O)Nc2cc(Oc3ccc4nc(NC(=O)C5CC5)cn4n3)ccc2C)n(C)n1 [TAK-593],98.4,99,93.2,97.6,80.5,94.6,102,97.6,101,98.3,99.1,95.5,93.1,104,75.4,101,103,98.4,95.1,94.1,99.6,101,96.3,95.4,91.1,> 10,> 10,> 10,> 10,> 10,0.9,0,0.7,0,0
C[C@@H]1CN(c2c(F)c(F)c3c(=O)c(C(=O)O)cn(C4CC4)c3c2F)C[C@H](C)N1 [orbifloxacin],110,105,109,103,94.6,113,97.9,112,92.8,107,98.2,110,94.8,100,92.1,99.5,97.5,95.3,97.6,101,105,110,101,100,94.5,> 10,> 10,> 10,> 10,> 10,0,0,0,0,0
Cc1c(C)c2c(c(C)c1O)CCC(C)(COc1ccc(CC3SC(=O)NC3=O)cc1)O2 (stereo not given) [troglitazone],89,116,106,93.4,106,112,98.2,110,98.4,108,87.7,103,104,90.6,98.5,95.2,100,95,101,101,101,92.2,101,95.9,101,> 10,> 10,> 10,> 10,> 10,0,0,0,0,0
CCOC(=O)Nc1ccc(NCc2ccc(F)cc2)nc1N [flupirtine],106,102,99.6,87.7,96,105,113,98.6,88.2,91.3,89.2,101,103,98.4,99.8,100,99.1,101,101,99.5,104,111,98.2,98.6,97,> 10,> 10,> 10,> 10,> 10,0.6,0.5,0,0,0
CCCCCCCC/C=C\CCCCCCCC(=O)N[C@@H](CO)Cc1ccc(O)cc1 [OMDM-2],87.1,94.4,97.1,91.8,102,106,102,99.5,96.7,97.3,100,93.3,114,106,99.6,96.8,101,96.7,100,99.7,92.4,92,97.4,93.7,109,> 10,> 10,> 10,> 10,> 10,0,0,0,0,0
Fc1ccc(C(c2ccccc2)(c2ccccc2F)n2ccnc2)cc1 (stereo not given) [flutrimazole],122,112,96.1,98.9,80.5,102,92,107,90.4,106,106,110,95.7,96.5,97.7,108,107,107,102,97.1,97,102,108,118,99.2,> 10,> 10,> 10,> 10,> 10,0.7,0,0,0,0
CN1CCN(c2cc3c(cc2F)c(=O)c(C(=O)O)cn3-c2ccc(F)cc2)CC1 [difloxacin],92.5,95.1,102,94.7,91.1,105,90.1,95.2,98.6,108,93.6,110,105,103,93.7,92,95.4,98.9,99.1,104,109,101,96.7,106,99.1,> 10,> 10,> 10,> 10,> 10,0,0,0,0,0
Cc1c(O)c(=O)ccn1C [deferiprone],92.4,98.3,93.4,116,93.4,89.6,106,109,100,98.2,103,97.4,98.3,97.1,101,96.5,100,100,94.5,96.2,101,102,99.3,98.1,99.9,> 10,> 10,> 10,> 10,> 10,0,0,0,0,0
OB1OCc2cc(F)ccc21 [tavaborole],95.6,87.4,91.7,88.3,97.3,101,105,96.4,104,105,92.9,105,103,102,105,99.2,97.3,100,97.2,102,94.6,96,87.7,92,112,> 10,> 10,> 10,> 10,> 10,0,0,0,0,0
Cc1[nH]c2ccc(F)cc2c1-c1nc2c3cccnc3c3ncccc3c2[nH]1 [APTO-253],95.9,100,94.7,88.3,90.3,111,93.9,95.2,36.6,5.3,93.2,97.2,96.7,92.1,42,96.7,96.6,97.9,80.1,27.4,96.2,94.6,94,95.9,86.9,> 10,0.639,2.07,1.47,> 10,0.6,13,4.5,7,0
CCN1C[C@]2(COC(=O)c3ccccc3N3C(=O)C[C@H](C)C3=O)CC[C@H](OC)[C@@]34[C@@H]5C[C@H]6[C@H](OC)[C@@H]5[C@](O)(C[C@@H]6OC)[C@](O)([C@@H](OC)[C@H]23)[C@@H]14 [methyllycaconitine],108,96.1,103,97,98.1,97.3,102,90.3,91.1,98.6,96.3,102,99.4,95.2,101,97.1,94.5,95.8,96.3,94.7,104,102,101,102,97.8,> 10,> 10,> 10,> 10,> 10,0,0,0,0,0
CC(=O)/N=c1/sc(S(N)(=O)=O)nn1C [methazolamide],110,101,100,94,96.7,100,99.4,93.7,98.3,107,101,97.6,101,101,102,105,107,104,98.3,102,97,99,98.2,98.4,92.7,> 10,> 10,> 10,> 10,> 10,0,0,0,0,0
c1ccc(-c2ccc(CNc3nc(-c4ccccn4)nnc3-c3ccccc3)cc2)cc1 [ML228],104,98.2,89.3,49.5,13.6,96,102,101,48.6,17.5,91.4,104,103,31.4,21,100,99.1,94.3,38.8,3.6,93.1,92.3,97,9.5,4.5,0.692,0.818,0.484,0.685,0.339,11.2,10.7,12.5,12.8,16.9
COC(=O)C1=C(C)NC(C)=C(C(=O)OC)C1c1ccccc1[N+](=O)[O-] [nifedipine],112,100,90.4,96.8,76.8,,,,,,95.7,84.8,96.8,117,102,104,102,103,100,96.6,99.5,103,106,101,94.9,> 10,> 10,> 10,> 10,> 10,1.3,0,0,0,0
